The values below come from patent US11135234B2, “Effective aminoglycoside antibiotic for multidrug-resistant bacteria” (MICROBIAL CHEMISTRY RESEARCH FOUNDATION, priority 2015, dated 2021).

The structures appear in SMILES notation. Converted amounts (≈) assume the structure as drawn.

One assay deals with S. marcescens GN6944. As to the kind of experiment: MIC, agar plate dilution method, S. marcescens GN6944. The format is cell-based, Serratia marcescens. The conditions noted are these: S. marcescens GN6944, GM-resistant. In short, it runs like this:
(§1)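 Japan Society of Chemotherapy agar dilution protocol used. MIC reported in μg/mL.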

Assay [1] has as its system K. pneumoniae ATCC BAA-1705. As to the kind of experiment: MIC, agar plate dilution method, K. pneumoniae ATCC BAA-1705. The format is cell-based, Klebsiella pneumoniae. The conditions noted are these: for minimal inhibitory concentration (MIC): K. pneumoniae ATCC BAA-1705, KPC-producing strain. An outline of the steps:
as §1

Assay [2] relates to A. baumannii ATCC BAA-1710. As to the kind of experiment: MIC, agar plate dilution method, A. baumannii ATCC BAA-1710. Format: cell-based, Acinetobacter baumannii. The conditions noted are these: for minimal inhibitory concentration (MIC): A. baumannii ATCC BAA-1710, MDRA. An outline of the steps: as §1
A further assay deals with S. marcescens TH-0447. As to the kind of experiment: MIC, agar plate dilution method, S. marcescens TH-0447. Particulars: for minimal inhibitory concentration (MIC): S. marcescens TH-0447, AMK-resistant. The format is cell-based, Serratia marcescens. In short, it runs like this:
as §1

Another assay deals with P. aeruginosa MSC17707. As to the kind of experiment: MIC, agar plate dilution method, P. aeruginosa MSC17707. The format is cell-based, Pseudomonas aeruginosa. Particulars: for minimal inhibitory concentration (MIC): P. aeruginosa MSC17707, AMK-resistant. An outline of the steps: as §1
The subject of the next assay is E. coli JM109/pMW218. As to the kind of experiment: MIC, agar plate dilution method, E. coli JM109/pMW218. Format: cell-based, Escherichia coli. The conditions noted are these: for minimal inhibitory concentration (MIC): E. coli JM109/pMW218, Sensitive bacterium. In short, it runs like this:
as §1

The subject of the next assay is E. faecium ATCC19434. As to the kind of experiment: MIC, agar plate dilution method, E. faecium ATCC19434. The format is cell-based, Enterococcus faecium. Particulars: for minimal inhibitory concentration (MIC): E. faecium ATCC19434. An outline of the steps:
as §1

The next assay has as its system P. aeruginosa PAO1. As to the kind of experiment: MIC, agar plate dilution method, P. aeruginosa PAO1. The conditions noted are these: for minimal inhibitory concentration (MIC): P. aeruginosa PAO1, Sensitive bacterium. Format: cell-based, Pseudomonas aeruginosa. An outline of the steps:
as §1

The test system of the next assay is P. aeruginosa PAO1/GN315. As to the kind of experiment: MIC, agar plate dilution method, P. aeruginosa PAO1/GN315. The conditions noted are these: for minimal inhibitory concentration (MIC): P. aeruginosa PAO1/GN315, AMK-resistant. The format is cell-based, Pseudomonas aeruginosa. In short, it runs like this: as §1
Assay [3] has as its system K. pneumoniae ATCC BAA-2146. As to the kind of experiment: MIC, agar plate dilution method, K. pneumoniae ATCC BAA-2146. Format: cell-based, Klebsiella pneumoniae. Particulars: for minimal inhibitory concentration (MIC): K. pneumoniae ATCC BAA-2146, NDM-producing strain. In short, it runs like this: as §1
For another assay, the system named is S. aureus RN4220. As to the kind of experiment: MIC, agar plate dilution method, S. aureus RN4220. The conditions noted are these: for minimal inhibitory concentration (MIC): S. aureus RN4220, Sensitive bacterium. The format is cell-based, Staphylococcus aureus. An outline of the steps:
as §1

The test system of a further assay is P. aeruginosa MSC01035. As to the kind of experiment: MIC, agar plate dilution method, P. aeruginosa MSC01035. The format is cell-based, Pseudomonas aeruginosa. The conditions noted are these: P. aeruginosa MSC01035, ABK-resistant. An outline of the steps:
as §1

The test system of a further assay is S. aureus MF490. As to the kind of experiment: MIC, agar plate dilution method, S. aureus MF490. Format: cell-based, Staphylococcus aureus. The conditions noted are these: for minimal inhibitory concentration (MIC): S. aureus MF490, MRSA. In short, it runs like this: as §1
The next assay has as its system S. aureus RN4220/pMS520. As to the kind of experiment: MIC, agar plate dilution method, S. aureus RN4220/pMS520. Format: cell-based, Staphylococcus aureus. Particulars: for minimal inhibitory concentration (MIC): S. aureus RN4220/pMS520, MRSA. An outline of the steps: as §1

As to `CN[C@@H]1[C@@H](O[C@H]2O[C@H](CO)[C@@H](NC(CN)CN)[C@H](O)[C@H]2O)O[C@H]2C[C@@H](N)[C@@H](O[C@H]3[C@@H](O)[C@@H](O)[C@H](N)C[C@@H]3N)O[C@@H]2[C@@H]1O` [Compound S1-i, 4″-N-(1,3-diaminopropan-2-yl)-5-epiapramycin], the “minimal inhibitory concentration (MIC)” value in the assay on S. marcescens GN6944 stood at 4 mg/L (≈ 6.54 µM); in assay [1], 1 mg/L (≈ 1.63 µM); in [2], 4 mg/L (≈ 6.54 µM); in the assay on S. marcescens TH-0447, 8 mg/L (≈ 13.1 µM); with P. aeruginosa MSC17707 it was 2 mg/L (≈ 3.27 µM); in the assay with E. coli JM109/pMW218, 1 mg/L (≈ 1.63 µM). Besides, the “minimal inhibitory concentration (MIC)” value in the assay on E. faecium ATCC19434 worked out at 4 mg/L (≈ 6.54 µM); in the assay with P. aeruginosa PAO1 it was 2 mg/L (≈ 3.27 µM); in the assay on P. aeruginosa PAO1/GN315 it was 4 mg/L (≈ 6.54 µM); in [3] it was 2 mg/L (≈ 3.27 µM); in the assay on S. aureus RN4220, 2 mg/L (≈ 3.27 µM); in the assay with P. aeruginosa MSC01035, 4 mg/L (≈ 6.54 µM). In addition, the figures for the “minimal inhibitory concentration (MIC)” value in the assay on S. aureus MF490 and in the assay with S. aureus RN4220/pMS520 were 4 mg/L (≈ 6.54 µM) and 2 mg/L (≈ 3.27 µM), respectively.
In the case of `CN[C@@H]1[C@@H](O[C@H]2O[C@H](CO)[C@@H](NC(=N)N)[C@H](O)[C@H]2O)O[C@H]2C[C@@H](N)[C@@H](O[C@H]3[C@@H](O)[C@@H](O)[C@H](N)C[C@@H]3N)O[C@@H]2[C@@H]1O` [Compound S1-j, 4″-deamino-5-epi-4″-guanidinoapramycin], the “minimal inhibitory concentration (MIC)” value was 4 mg/L (≈ 6.88 µM) in the assay with S. marcescens GN6944; 1 mg/L (≈ 1.72 µM) in assay [1]; 4 mg/L (≈ 6.88 µM) in [2]; 4 mg/L (≈ 6.88 µM) in the assay with S. marcescens TH-0447; 4 mg/L (≈ 6.88 µM) in the assay on P. aeruginosa MSC17707; 0.5 mg/L (≈ 0.86 µM) with E. coli JM109/pMW218. Moreover, the “minimal inhibitory concentration (MIC)” value in the assay with E. faecium ATCC19434 came to 8 mg/L (≈ 13.8 µM); in the assay with P. aeruginosa PAO1 it was 2 mg/L (≈ 3.44 µM); in the assay on P. aeruginosa PAO1/GN315 it was 4 mg/L (≈ 6.88 µM); in assay [3], 1 mg/L (≈ 1.72 µM); in the assay with S. aureus RN4220, 2 mg/L (≈ 3.44 µM); in the assay with P. aeruginosa MSC01035, 4 mg/L (≈ 6.88 µM). Besides, the “minimal inhibitory concentration (MIC)” value worked out at 4 mg/L (≈ 6.88 µM) in the assay on S. aureus MF490 and 1 mg/L (≈ 1.72 µM) in the assay with S. aureus RN4220/pMS520.
Regarding `CNC1C(O[C@H]2OC(CO)[C@@H](NC(=N)N)[C@H](O)C2O)O[C@H]2CC(N)[C@@H](O[C@@H]3C(N)C[C@@H](N)C(O)[C@H]3F)OC2C1O` (stereo partly drawn) [Compound S1-k, 4″-deamino-5-deoxy-5-epi-5-fluoro-4″-guanidinoapramycin], the MIC in the assay on S. marcescens GN6944 (Serratia marcescens, read-out: minimal inhibitory concentration (MIC)) was 4 mg/L (≈ 6.85 µM); in assay [1] (Klebsiella pneumoniae, ATCCBAA1705, K. pneumoniae ATCC BAA-1705, KPC-producing strain, read-out: minimal inhibitory concentration (MIC)), 1 mg/L (≈ 1.71 µM); in assay [2] (Acinetobacter baumannii, ATCCBAA1710, A. baumannii ATCC BAA-1710, MDRA, read-out: minimal inhibitory concentration (MIC)) it was 8 mg/L (≈ 13.7 µM); in the assay on S. marcescens TH-0447 (Serratia marcescens, TH0447, S. marcescens TH-0447, AMK-resistant, read-out: minimal inhibitory concentration (MIC)), 8 mg/L (≈ 13.7 µM); in the assay on P. aeruginosa MSC17707 (Pseudomonas aeruginosa, MSC17707, P. aeruginosa MSC17707, AMK-resistant, read-out: minimal inhibitory concentration (MIC)) it was 8 mg/L (≈ 13.7 µM); with E. coli JM109/pMW218 (Escherichia coli, JM109/PMW218, E. coli JM109/pMW218, Sensitive bacterium, read-out: minimal inhibitory concentration (MIC)) it was 0.5 mg/L (≈ 0.857 µM). Besides, the MIC in the assay on E. faecium ATCC19434 (Enterococcus faecium, ATCC19434, E. faecium ATCC19434, read-out: minimal inhibitory concentration (MIC)) came out at 16 mg/L (≈ 27.4 µM); in the assay on P. aeruginosa PAO1 (Pseudomonas aeruginosa, PAO1, P. aeruginosa PAO1, Sensitive bacterium, read-out: minimal inhibitory concentration (MIC)), 8 mg/L (≈ 13.7 µM); in the assay on P. aeruginosa PAO1/GN315 (Pseudomonas aeruginosa, read-out: minimal inhibitory concentration (MIC), P. aeruginosa PAO1/GN315, AMK-resistant), 8 mg/L (≈ 13.7 µM); in assay [3] (Klebsiella pneumoniae, ATCCBAA2146, K. pneumoniae ATCC BAA-2146, NDM-producing strain, read-out: minimal inhibitory concentration (MIC)) it was 1 mg/L (≈ 1.71 µM); with S. aureus RN4220 (Staphylococcus aureus, RN4220, S. aureus RN4220, Sensitive bacterium, read-out: minimal inhibitory concentration (MIC)) it was 1 mg/L (≈ 1.71 µM); with P. aeruginosa MSC01035 (Pseudomonas aeruginosa, read-out: minimal inhibitory concentration (MIC)), 8 mg/L (≈ 13.7 µM). Further, the MIC stood at 4 mg/L (≈ 6.85 µM) in the assay with S. aureus MF490 (Staphylococcus aureus, MRSA, read-out: minimal inhibitory concentration (MIC)) and 1 mg/L (≈ 1.71 µM) with S. aureus RN4220/pMS520 (Staphylococcus aureus, MRSA, read-out: minimal inhibitory concentration (MIC), S. aureus RN4220/pMS520, MRSA).
`CNC1C(CO)OC(OC2OC3CC(N)C(OC4C(N)CC(N)CC4O)OC3C(O)C2NC)C(O)C1O` (stereo not drawn) [Compound S1-l, 6-deoxy-5-epi-4″-N-methylapramycin]: the “minimal inhibitory concentration (MIC)” value in the assay with S. marcescens GN6944 came to 2 mg/L (≈ 3.72 µM); in [1] it was 1 mg/L (≈ 1.86 µM); in [2], 4 mg/L (≈ 7.44 µM); in the assay with S. marcescens TH-0447, 4 mg/L (≈ 7.44 µM); in the assay on P. aeruginosa MSC17707, 4 mg/L (≈ 7.44 µM); with E. coli JM109/pMW218, 0.5 mg/L (≈ 0.93 µM). Moreover, the “minimal inhibitory concentration (MIC)” value in the assay with E. faecium ATCC19434 is 16 mg/L (≈ 29.8 µM); in the assay on P. aeruginosa PAO1, 4 mg/L (≈ 7.44 µM); in the assay with P. aeruginosa PAO1/GN315 it was 4 mg/L (≈ 7.44 µM); in [3], 0.5 mg/L (≈ 0.93 µM); with S. aureus RN4220, 2 mg/L (≈ 3.72 µM); in the assay on P. aeruginosa MSC01035, 4 mg/L (≈ 7.44 µM). In addition, the figures for the “minimal inhibitory concentration (MIC)” value in the assay on S. aureus MF490 and in the assay with S. aureus RN4220/pMS520 were 8 mg/L (≈ 14.9 µM) and 1 mg/L (≈ 1.86 µM), respectively.
